Results reported in patent publication US20180169145A1, “COMPOSITIONS AND METHODS FOR USING LAMELLAR BODIES FOR THERAPEUTIC PURPOSES” (priority 2015, published 2018).
Where two headings read alike, the source gives them in different places.

Assays:
Pseudomonas aeruginosa [1] = assay: MBEC assay: sessile (biofilm) MIC of antibiotics in absence and presence of LMS-611; assay type: cell-based; settings: for sessile MIC + LMS: in presence of LMS-611 (10 mg/mL); for reduction of sessile MIC of the antibiotic by LMS-611: PA strains, in combination with LMS-611; for MIC: Pseudomonas aeruginosa; for MIC / sessile MIC: antibiotic alone; for effect of LMS-611 with antibiotic in reducing biofilm MICs, compared with antibiotic alone: strain PA01, FIG. 14-17
Protocol: Pseudomonas aeruginosa strains PA01, PAl4, two clinical Cystic Fibrosis (CF) strains […], YH1 and Burkholderia cenocepacia strains […]7 and YHBCC8 were grown on a Nunc Immunosorp PEG plate model for 48 h on a rocking platform. […] Scanning electron microscopy was used to assess the treated biofilms.

Pseudomonas aeruginosa [2] = assay: Artificial sputum medium (ASM) biofilm assay; assay type: cell-based; settings: for bacterial kill of antibiotic with LMS-611: LMS-611 at 40 μg/ml
Source text: ASM is artificial sputum medium.
Images of PA biofilm in ASM. Quantification of bacterial count from the ASM biofilm (CFU/mL).
In vitro, Artificial Sputum Models (ASM), considered to represent biofilm typical of that seen in CF, were used to study Pseudomonas aeruginosa infection.
Pyocyanin, a blue-green phenazine pigment produced by P. aeruginosa and controlled by the quorum sensing system (a system of inter-bacterial signalling which correlates to population density) and thus its presence and concentration in a bacterial culture can be used to give an indication of the strength of quorum sensing activity.
Measurement of metabolic activity of Pseudomonas aeruginosa in the Artificial Sputum Model (ASM) using a Resazurin assay, in which the fluorescence detected is directly proportional to the metabolic activity of the bacteria (FIG. 3).

Burkholderia cenocepacia = assay: MBEC assay: sessile (biofilm) MIC of antibiotics in absence and presence of LMS-611; assay type: cell-based; settings: for MIC: Burkholderia cenocepacia
Protocol: Pseudomonas aeruginosa strains PA01, PAl4, two clinical Cystic Fibrosis (CF) strains H183, YH1 and Burkholderia cenocepacia strains K56-2, YHBCC5, YHBCC6, YHBCC7 and YHBCC8 were grown on a Nunc Immunosorp PEG plate model for 48 h on a rocking platform. […] Scanning electron microscopy was used to assess the treated biofilms.

PA strains = assay: Nebulisation of LMS-611 combined with antibiotic, multistage liquid impactor (MSLI); design: species or system Pseudomonas aeruginosa; settings: colistin: PA2783 strain, stages representing site of cystic fibrosis lung disease; tobramycin: PA strain 27853
Source text: FIG. 18 illustrates the effect of nebulisation of LMS-611 when combined with Colistin with PA strain 217M using nebulisers with two different modes of operation (Pari-boy (jet-type) and Pari Flow (oscillating mesh)) wherein a multistage liquid impactor (MSLI) was used to measure the aerodynamic particle size distribution and deposition from nebulised LMS-611 compositions wherein the MSLI from Copley measures particle size in accordance with the European Pharmacopeia guidelines (Chapter […]) and the impactor has five stages simulating the various parts of the human respiratory system. Particles with the same inertia will impact upon a particular stage, whilst smaller particles will pass onto the next impaction stage such that by analysing the amount of LMS-611 deposited on the various stages the fine particle dose and fraction can be calculated wherein the fine particle dose (respirable fraction) is the proportion of the dose from an inhalation device (nebuliser) that is made available to the airways, and this correlates with the dose of LMS-611 that reaches the conducting airways during inhalation;

| Compound | sessile MIC + LMS (Pseudomonas aeruginosa [1]; PA strain H183) | sessile MIC + LMS (Pseudomonas aeruginosa [1]; PA strain PA01) | sessile MIC + LMS (Pseudomonas aeruginosa [1]; PA strain PA14) | sessile MIC + LMS (Pseudomonas aeruginosa [1]; PA strain YH1) | reduction of sessile MIC of the antibiotic by LMS-611 (Pseudomonas aeruginosa [1]) | MIC (Pseudomonas aeruginosa [1]; PA14, PA strain PA14) | MIC (Pseudomonas aeruginosa [1]; PA strain H183) | MIC (Pseudomonas aeruginosa [1]; PA strain PA01) | MIC (Pseudomonas aeruginosa [1]; PA strain YH1) | effect of LMS-611 with antibiotic in reducing biofilm MICs, compared with antibiotic alone (Pseudomonas aeruginosa [1]) | further results |
| --- | --- | --- | --- | --- | --- | --- | --- | --- | --- | --- | --- |
| C[C@H]1[C@H](NC(=O)/C(=N\OC(C)(C)C(=O)O)c2csc(N)n2)C(=O)N1S(=O)(=O)O [Aztreonam] | 2000 µg/mL | 2000 µg/mL | 2000 µg/mL | 1000 µg/mL | 2-4 fold | 4000 µg/mL | 4000 µg/mL | 4000 µg/mL | 4000 µg/mL | – | – |
| O=C(O)c1cn(C2CC2)c2cc(N3CCNCC3)c(F)cc2c1=O [Ciprofloxacin] | – | – | – | – | – | – | – | – | – | – | bacterial kill of antibiotic with LMS-611 (Pseudomonas aeruginosa [2]): total bacterial kill |
| C[C@@H](O)[C@H]1C(=O)N2C(C(=O)O)=C(S[C@@H]3CN[C@H](C(=O)N(C)C)C3)[C@H](C)[C@H]12 [Meropenem] | 1000 µg/mL | 2000 µg/mL | 2000 µg/mL | 1000 µg/mL | 1-2 fold | 2000 µg/mL | 2000 µg/mL | 2000 µg/mL | 2000 µg/mL | – | – |
| CCN1CCN(C(=O)N[C@@H](C(=O)N[C@@H]2C(=O)N3[C@@H]2SC(C)(C)[C@@H]3C(=O)O)c2ccccc2)C(=O)C1=O [Piperacillin] | 250 µg/mL | 250 µg/mL | 1000 µg/mL | 1000 µg/mL | 4-16 fold | 8000 µg/mL | 4000 µg/mL | 2000 µg/mL | 8000 µg/mL | more effective | MIC (Burkholderia cenocepacia; BCC strain K56-2, antibiotic alone, read-out: sessile MIC): 64000 µg/mL; MIC (Burkholderia cenocepacia; BCC strain K56-2, in presence of LMS-611 (10 mg/mL), read-out: sessile MIC + LMS): 16000 µg/mL; MIC (Burkholderia cenocepacia; BCC strain YHBCC5, antibiotic alone, read-out: sessile MIC): 32000 µg/mL; MIC (Burkholderia cenocepacia; BCC strain YHBCC5, in presence of LMS-611 (10 mg/mL), read-out: sessile MIC + LMS): 4000 µg/mL; MIC (Burkholderia cenocepacia; BCC strain YHBCC6, antibiotic alone, read-out: sessile MIC): 32000 µg/mL; MIC (Burkholderia cenocepacia; BCC strain YHBCC6, in presence of LMS-611 (10 mg/mL), read-out: sessile MIC + LMS): 32000 µg/mL; MIC (Burkholderia cenocepacia; BCC strain YHBCC7, antibiotic alone, read-out: sessile MIC): 32000 µg/mL; MIC (Burkholderia cenocepacia; BCC strain YHBCC7, in presence of LMS-611 (10 mg/mL), read-out: sessile MIC + LMS): 4000 µg/mL |
| NC[C@H]1O[C@H](O[C@H]2[C@H](O)[C@@H](O[C@H]3O[C@H](CO)[C@@H](O)[C@H](N)[C@H]3O)[C@H](N)C[C@@H]2N)[C@H](N)C[C@@H]1O [Tobramycin] | <4000 µg/mL | <4000 µg/mL | <4000 µg/mL | 500 µg/mL | 1-4 fold | < 4000 µg/mL | < 4000 µg/mL | < 4000 µg/mL | 2000 µg/mL | – | bactericidal effect of nebulised antibiotic combined with LMS-611 by MSLI stage (PA strains): greater on the 6.8 μm, 3.1 μm and 1.7 μm stages; bacterial kill of antibiotic with LMS-611 (Pseudomonas aeruginosa [2]): total bacterial kill; bacterial clearance of LMS-611 plus antibiotic compared to antibiotic treatment alone (Pseudomonas aeruginosa [2]; preformed biofilm, in combination with LMS-611): significantly greater bacterial clearance |
| CC(C)(O/N=C(\C(=O)N[C@@H]1C(=O)N2C(C(=O)[O-])=C(C[n+]3ccccc3)CS[C@H]12)c1csc(N)n1)C(=O)O [ceftazidime] | – | – | – | – | – | – | – | – | – | more effective | – |
| CC[C@H]1OC(=O)[C@H](C)[C@@H](O[C@H]2C[C@@](C)(OC)[C@@H](O)[C@H](C)O2)[C@H](C)[C@@H](O[C@@H]2O[C@H](C)C[C@H](N(C)C)[C@H]2O)[C@](C)(O)C[C@@H](C)C(=O)[C@H](C)[C@@H](O)[C@]1(C)O [erythromycin] | – | – | – | – | – | – | – | – | – | – | reduction of sessile MIC of the antibiotic by LMS-611 (Burkholderia cenocepacia; BCC strains, in combination with LMS-611): No effect |
| Gentamicin | 500 µg/mL | 500 µg/mL | 500 µg/mL | – | 4-8 fold | – | – | – | – | more effective | sessile MIC (Burkholderia cenocepacia; BCC strain K56-2, antibiotic alone): 256000 µg/mL; sessile MIC + LMS (Burkholderia cenocepacia; BCC strain K56-2, in presence of LMS-611 (10 mg/mL)): 64000 µg/mL; sessile MIC (Burkholderia cenocepacia; BCC strain YHBCC5, antibiotic alone): >256000 µg/mL; sessile MIC + LMS (Burkholderia cenocepacia; BCC strain YHBCC5, in presence of LMS-611 (10 mg/mL)): 256000 µg/mL; sessile MIC (Burkholderia cenocepacia; BCC strain YHBCC6, antibiotic alone): 64000 µg/mL; sessile MIC + LMS (Burkholderia cenocepacia; BCC strain YHBCC6, in presence of LMS-611 (10 mg/mL)): 16000 µg/mL; sessile MIC (Burkholderia cenocepacia; BCC strain YHBCC7, antibiotic alone): 128000 µg/mL; sessile MIC + LMS (Burkholderia cenocepacia; BCC strain YHBCC7, in presence of LMS-611 (10 mg/mL)): 16000 µg/mL; sessile MIC (Pseudomonas aeruginosa [1]; PA strain H183): 4000 µg/mL; sessile MIC (Pseudomonas aeruginosa [1]; PA strain PA01): 4000 µg/mL; sessile MIC (Pseudomonas aeruginosa [1]; PA strain PA14): 4000 µg/mL; sessile MIC (Pseudomonas aeruginosa [1]; PA strain YH1): 500 µg/mL |
| colistin | – | – | – | – | – | – | – | – | – | more effective | bactericidal effect of nebulised antibiotic combined with LMS-611 by MSLI stage (PA strains): greatest bactericidal effect |
